Results from ChEMBL document CHEMBL3430912, “GSK Tres Cantos Anti-Kinetoplastid Screening (TCAKS) Data”.

What was measured:
Trypanosoma cruzi [1] = assay: (§1) GSK_TCAKS: pIC50 H2C9 Imaging: H9c2 Host Cardiomyocytes. […] Cells were then washed once with PBS before infection. T. cruzi trypomastigotes, collected at days 5 to 8 after infection from LLC-MK2 parasite infected cultures, were allowed to swim out for 4h at 37C from a centrifuged pellet (2,500 rpm/10 min/room temperature). Trypomastigotes were then collected and counted in a CASY Cell Counter. Trypomastigotes, in supplemented DMEM, were added to H9c2 cultures in a multiplicity of infection of 1 and incubated for 18 h. Cells were washed once with PBS before incubation of the infected H9c2 monolayer with trypsin (Life-Technologies) to detach cells from the flask. Cells were counted in a CASY Cell Counter using a 150 um capillary and their density set at 5 * 10^4 cells per mL in supplemented assay DMEM. Infected H9c2 were dispensed into 384-well poly-lysine coated assay plates at 50uL per well using a Multidrop Combi dispenser. After seeding them, the plates were incubated at 37C, 5% CO2 for 72h. Cultures were then fixed and stained by addition of 50 uL of a solution containing 8% formaldehyde and 4 uM DRAQ5 DNA dye (BioStatus, UK) per well. […] Five images were collected per well for reliable statistical analysis. Automated image analysis was performed with a script developed on Acapella High Content Imaging and Analysis Software (PerkinElmer). Output: Number of H9c2 Host Cardiomyocytes nuclei to determine drug-related cytotoxicity.; format: functional, organism-based, Rattus norvegicus; conditions: H9c2, 4 h
Leishmania donovani [2] = assay: GSK_TCAKS: pIC50 Leishmania donovani Imaging: Infected Macrophages. Assay plates (384-well) were prepared by adding 250nL of compound to each well. For single shot assay, the final compound concentration was 5 uM. […] Automated image analysis was performed with a script developed on Acapella High Content Imaging and Analysis Software (PerkinElmer). Output: Percent of infected macrophage cells were reported for each well.; format: functional, organism-based, Homo sapiens; conditions: THP-1
[3] = system: Trypanosoma brucei brucei; assay: GSK_TCAKS: pIC50 Trypanosoma brucei viability assay using luminiscence. Assay plates (1536-well) were prepared. T. brucei cultures were harvested and counted in a CASY cell counter. A parasite suspension was prepared at a final concentration of 5 * 10^4 cells/mL in complete HMI9 medium and 6uL was dispensed to all wells containing compounds using a Multidrop Combi dispenser. 6uL of HMI9 media with 0.4% DMSO were dispensed to control columns. Plates were incubated for 24 h at 37C, 5% CO2 then tempered for 10 min at room temperature. ATP content was quantified by adding 4 uL of CellTiter-Glo Reagent (Promega) according to the manufacturer's instructions. Luminescence was measured using a ViewLux.; format: functional, organism-based; conditions: Lister 427, CASY
Leishmania donovani [4] = assay: GSK_TCAKS: pIC50 Leishmania donovani Imaging: Amastigotes/Macrophages. Assay plates (384-well) were prepared by adding 250nL of compound to each well. For single shot assay, the final compound concentration was 5 uM. […] Automated image analysis was performed with a script developed on Acapella High Content Imaging and Analysis Software (PerkinElmer). Output: Average number of amastigotes per macrophage cell were reported for each well.; format: functional, organism-based, Homo sapiens; conditions: THP-1
Trypanosoma cruzi [5] = assay: GSK_TCAKS: pIC50 Trypanosoma cruzi viability assay using beta-GAL activity. This assay was run at single shot at 5uM compound concentration per well. The biological reagents consisted of NIH-3T3 host cells and trypomastigotes parasitic cells; both cell types were set to a 3.3 * 10^5 cells/mL dilution in assay DMEM by means of a CASY cell counter device using a 60um capillary. 6 uL of the mixture were dispensed per well (about 1 * 10^3 host-cells and 1 * 10^3 parasites) with a Multidrop Combi dispenser. […] In all wells, the percentage of DMSO never exceeded 0.5%. Plates incubated for four days at 37C, 5% CO2. The substrate used for the assay fluorescence intensity (FLINT) readout was resorufin-beta-D-galactopiranoside (Sigma-Aldrich) at 5uM per well. It was diluted in PBS supplemented with the soft detergent Igepal (Fluka).; format: functional, organism-based, Mus musculus; conditions: Tulahuen, NIH3T3
Leishmania donovani [6] = assay: GSK_TCAKS: pIC50 Leishmania donovani viability assay using fluorescence intensity. Assay plates (1536-well) were prepared by adding 30nL per well of compound. For single shot assay, the final compound concentration was 5uM. […] Briefly, eGFP LdBOB axenic amastigotes were harvested, fixed and counted in a CASY cell counter (Roche-Applied Science). A final concentration of 1.5 * 10^5 cells per well were prepared in amastigote media containing 500 U/mL penicillin/streptomycin (Invitrogen) and 6uL was dispensed to each experimental well using a Multidrop Combi dispenser (Thermo Scientific). 6uL of assay media was dispensed to control columns used as reference for 100% compound response. Following incubation for 72 h at 37C, 5% CO2, 2 uL of resazurin was added to each well at a final concentration of 0.5 mM in phosphate buffered saline (PBS) with IGEPAL (Sigma-Aldrich), 0.05% (v/v).; format: functional, organism-based
Trypanosoma cruzi [7] = assay: as §1, with “Trypanosoma cruzi” for “H2C9”, “Infected Cells.” for “H9c2 Host Cardiomyocytes.”, “percentage” for “Number”, “infected cells per well as a second infection marker.” for “H9c2 Host Cardiomyocytes nuclei to determine drug-related cytotoxicity.”; format: functional, organism-based, Rattus norvegicus; conditions: H9c2, 4 h
[8] = GSK_TCAKS: pIC50 HepG2 human cell line viability assay using luminiscence. […] Seeding density was checked to ensure that new mono-layers were not more than 50% confluent at the time of harvesting. Cell suspension was added to 500 mL of the same medium at a final density of 1.2 * 10^5 cells/mL. This cell suspension was dispensed (25 uL, 3000 cells per well) into 384-well clear-bottom plates using a Multidrop Combi dispenser. Prior to addition of the cell suspension, the screening compounds (250 nL) were pre-dispensed into the plates with an Echo liquid handler. Plates were incubated for 48 h at 37C, 5% CO2. After incubation, plates equilibrated at room temperature for 30 min before proceeding to develop the luminescent signal. The signal developer, CellTiter-Glo Reagent, was allowed to equilibrate at room temperature for 30 min and added to the plates (25uL per well) using a Multidrop Combi dispenser. Plates were left for 10 min at room temperature for stabilization and then read using a ViewLux.; format: toxicity, cell-based
Trypanosoma cruzi [9] = assay: as §1, with “Trypanosoma cruzi” for “H2C9”, “Amastigotes/Cell.” for “H9c2 Host Cardiomyocytes.”, “number” for “Number”, “amastigotes per cell as infection level measurement.” for “H9c2 Host Cardiomyocytes nuclei to determine drug-related cytotoxicity.”; format: functional, organism-based, Rattus norvegicus; conditions: H9c2, 4 h
Leishmania donovani [10] = assay: GSK_TCAKS: pIC50 Leishmania donovani Imaging: THP-1 Host Macrophages. Assay plates (384-well) were prepared by adding 250nL of compound to each well. For single shot assay, the final compound concentration was 5 uM. […] Automated image analysis was performed with a script developed on Acapella High Content Imaging and Analysis Software (PerkinElmer). Output: THP-1 cell count were reported for each well.; format: functional, organism-based, Homo sapiens
[11] = molecular target: Sterol 14-alpha demethylase (Trypanosoma cruzi (strain CL Brener), UniProt Q7Z1V1); assay: GSK_TCAKS: pIC50 CYP51 from Trypanosoma cruzi.; format: functional
[12] = system: Trypanosoma brucei brucei; assay: GSK_TCAKS: pIC50 Trypanosoma brucei viability assay using fluorescence intensity. Assay plates (1536-well) were prepared by dispensing 25nL of compound solution per well using an Echo acoustic dispenser (Labcyte).; format: functional, organism-based; conditions: Lister 427, 2 h

Sequence of Sterol 14-alpha demethylase (Q7Z1V1 whole entry): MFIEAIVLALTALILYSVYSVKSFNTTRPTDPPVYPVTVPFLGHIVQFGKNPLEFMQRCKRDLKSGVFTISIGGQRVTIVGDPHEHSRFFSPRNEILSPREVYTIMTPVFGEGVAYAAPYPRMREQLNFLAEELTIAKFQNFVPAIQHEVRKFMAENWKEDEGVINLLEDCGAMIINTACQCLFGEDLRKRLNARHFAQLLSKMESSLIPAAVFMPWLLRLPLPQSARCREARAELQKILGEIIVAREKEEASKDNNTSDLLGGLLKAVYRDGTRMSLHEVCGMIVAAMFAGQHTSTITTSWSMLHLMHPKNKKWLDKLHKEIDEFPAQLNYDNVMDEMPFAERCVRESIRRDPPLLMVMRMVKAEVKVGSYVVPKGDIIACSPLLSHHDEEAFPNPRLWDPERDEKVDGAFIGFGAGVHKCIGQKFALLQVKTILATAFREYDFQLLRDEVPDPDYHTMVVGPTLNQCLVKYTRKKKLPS

Row | Compound | IC50 (Trypanosoma cruzi [1]) [µM] | IC50 (Leishmania donovani [2]) [µM] | IC50 [3] [µM] | IC50 (Leishmania donovani [4]) [µM] | IC50 (Trypanosoma cruzi [5]) [µM] | IC50 (Leishmania donovani [6]) [µM] | IC50 (Trypanosoma cruzi [7]) [µM] | IC50 at 48 h [8] [µM] | IC50 (Trypanosoma cruzi [9]) [µM] | IC50 (Leishmania donovani [10]) [µM] | IC50 [11] [µM] | IC50 [12] [µM]
1 | OC[C@@H](Nc1nccc(-c2c(-c3ccc(F)cc3)ncn2C2CCNCC2)n1)c1ccccc1 | 2 | 31.6 | 0.631 | 31.6 | 31.6 | > 50.1 | 12.6 | 100 | 12.6 | 31.6 | 25.1 | 0.398
2 | CC(C)C[C@H](NC(=O)c1ccc(-c2ccccc2)o1)C(=O)NC1(C#N)CC1 | > 50.1 | > 50.1 | 0.0501 | 15.8 | 31.6 | > 50.1 | > 50.1 | > 100 | 25.1 | > 50.1 | > 100 | 0.1
3 | NC(=O)c1ccsc1NC(=O)c1ccc([N+](=O)[O-])s1 | > 50.1 | 1.58 | 1.58 | 1.26 | 0.0794 | 0.316 | 0.126 | > 100 | 0.1 | 12.6 | > 100 | 0.2
4 | CN(C)S(=O)(=O)c1cccc(C(=O)Nc2nc(-c3ccccn3)cs2)c1 | 7.94 | 6.31 | 0.631 | 2.51 | 1.26 | 1.26 | 1.58 | > 100 | 1 | 7.94 | 31.6 | 0.501
5 | O=C(c1ccccc1)N1CCC(C(=O)N2CCC(Oc3ccccc3Cl)CC2)CC1 | > 50.1 | > 50.1 | 1 | 31.6 | 2 | > 50.1 | 31.6 | > 100 | 25.1 | > 50.1 | 20 | 0.501
6 | Nc1cc(-c2ccc3ncnc(N4CCOCC4)c3c2)cnc1N | 3.16 | 10 | 0.158 | 1.26 | 1.58 | 3.98 | 5.01 | > 100 | 1.58 | > 50.1 | 79.4 | 0.0501
7 | Cn1nc(-c2ccc(NC(=O)Cc3ccccc3Cl)cc2)c2c(N)ncnc21 | 7.94 | > 50.1 | 0.251 | > 50.1 | 2 | > 50.1 | 1.26 | > 100 | 1 | > 50.1 | 63.1 | 0.398
8 | O=C1NCCn2ccc(Nc3nc(N[C@H]4CC[C@H](O)CC4)ncc3Cl)c21 | 0.398 | 1 | 0.631 | 0.631 | 6.31 | 2.51 | 20 | > 100 | 3.16 | 0.398 | > 100 | 0.501
9 | COc1ccc(OC)c(S(=O)(=O)N(Cc2c(F)cccc2F)[C@@H]2CCN(C#N)C2)c1 | 15.8 | 25.1 | 0.794 | 20 | 6.31 | 15.8 | 12.6 | 79.4 | 6.31 | 20 | > 100 | 0.631
10 | CCC(CC)C(=O)Nc1ccc(-c2nnc(-c3ccc(OC)cc3)o2)cc1 | > 50.1 | > 50.1 | 0.501 | > 50.1 | 5.01 | > 50.1 | 12.6 | > 100 | 3.98 | > 50.1 | 12.6 | 0.501
11 | Cc1nn(-c2nc3ccccc3s2)c2c1C(c1ccc(OCC(N)=O)cc1)SCC(=O)N2 (configuration not stated) | > 50.1 | > 50.1 | 0.0316 | > 50.1 | 5.01 | > 50.1 | > 50.1 | > 100 | > 50.1 | > 50.1 | > 100 | 0.02
